The values that follow come from patent publication US20180201650A1 (BGI SHENZHEN, priority 2014, published 2018).

Entries after “also recorded” stand apart in the source; their conditions may differ.

The test has as its system HVA calcium channel. It is filed as cell-based, rat.

Turning to GICCVDDTCTTHSGCL [κ-CPTx-btl05], the “current after loading (pA)” value is reported as −62.59 pA, the “current before loading (pA)” value was −391.32 pA and the “inhibition of HVA calcium channel currents compared with Nifedipine (in words)” value was “inhibitory effect is higher than that of Nifedipine; also recorded: higher inhibition rate on HVA calcium channel currents than Nifedipine”. Moreover, the “inhibition rate (%)” value (10 μM) came out at 83.24%.
